Here are results for 1 molecule from US20250345318A1, “COMPOUND AND USE THEREOF IN PREVENTING OR TREATING RADIATION DAMAGE” (SIMCERE PHARMACEUTICAL CO., LTD., priority 2022, published 2025).

For data set [1], the system named is C57BL/6 male mice. Description: Therapeutic JAC4 administration, total body X-ray irradiation, small intestine villus length (Example 7). The data set is classed as in vivo. As for the experimental part: C57BL/6 male mice (24.8±1.6 g in body weight) aged 10 weeks were divided into 4 groups. The mice were subjected to total body X-ray irradiation (6 Gy) before JAC4 (100 mg/kg) or an equal volume of vehicle (polyethylene glycol:ethanol:physiological saline=47.5:7.5:50, v/v/v) was orally administered to the mice once daily for 7 consecutive days. The small intestine tissues were collected for HE staining and inspection, and the small intestine villus length was measured in all groups and statistically analyzed. The specific procedures are as follows: 3 mice were randomly selected from each group for statistical analysis of their small intestine tissue HE staining images, and for each mouse, 6 fields of view were randomly selected for inspection (*** p<0.001).

The subject of data set [2] is C57BL/6 male mice. Description: Body weight after abdominal X-ray irradiation 12 Gy (Example 9). The data set is classed as in vivo. The note with it: JAC4 100 mg/kg oral + abdominal X-ray 12 Gy. On the procedure: CS7BL/6 male mice aged 10 weeks were divided into 3 groups, i.e., a vehicle control group, a vehicle+radiation group, and a JAC4+radiation group 8 days after radiation, with 6 mice in each group. JAC4 (100 mg/kg) or an equal volume of vehicle (polyethylene glycol:ethanol:physiological saline=47.5:7.5:50, v/v/v) was orally administered to the mice once daily for 7 days. After that, the mice were subjected to abdominal X-ray irradiation (12 Gy) and the JAC4 or vehicle treatment was continued for 4 days. The body weights of the mice before and after […] X-ray irradiation were recorded daily, and body weight curves were plotted.

Data set [3] concerns C57BL/6 male mice. Description: Lengths of small intestine and colon, acute radiation enteritis (Example 11). Format: in vivo. The conditions noted are these: JAC4 100 mg/kg oral + abdominal X-ray 12 Gy. As for the experimental part: C57BL/6 male mice (27.6±1.9 g in body weight) aged 10 weeks were divided into 3 groups of 6 mice each. JAC4 (100 mg/kg) or an equal volume of vehicle (polyethylene glycol:ethanol:physiological saline=40:7.5:52.5, v/v/v) was orally administered to the mice once daily for 7 consecutive days. After that, the mice were subjected to abdominal X-ray irradiation (12 Gy) and JAC4 or vehicle treatment was continued. After 4 days, blood samples and small intestine were collected.
The small intestine epithelial mucosal barrier is located at the interface between luminal micro-organisms and the mucosal immune system, and can maintain the intestinal mucosal barrier homeostasis. The integrity of the small intestine mucosal barrier is determined by a number of factors, including the tight junction proteins, proteins in other cell junction complexes, and the like. JAC4 has a protective effect on the small intestine mucosal barrier. The disruption of the small intestine mucosal barrier may lead to radiation enteritis and a reduction in the length of small intestine due to the inflammatory edema.

Another data set has as its system SPCA-1 cells. Briefly: Subcutaneous SPCA-1 lung cancer xenograft model with X-ray radiation therapy (Example 20). Format: in vivo. The conditions noted are these: for tumor inhibition rate: day 13, vs control group. On the procedure: SPCA-1 cells in the logarithmic growth phase were subcutaneously injected into male BALB/C nude mice aged 4-5 weeks at 5×10^6 cells/100 μL […]. When the tumor volume reached 60-100 mm^3 (tumor volume=length×width^2/2), the mice were randomized into a vehicle control group, a 100 mg/kg JAC4 group (daily treatment), a 3 Gy×5 X-ray radiation group (5 consecutive days of radiation), and a 100 mg/kg JAC4+3 Gy×5 X-ray radiation group, each containing 6 mice. The formulation of the vehicle for JAC4 was polyethylene glycol:ethanol:physiological saline=40:7.5:52.5, v/v/v. The vehicle group and the treatment groups were given the vehicle or the treatment at the same volume by the same route, respectively. The mice were kept anesthetized by isoflurane through a mask in a supine posture. The irradiation range was adjusted to the tumor and the whole lung with a width of about 2 cm through the width indicating lamp and the beam limiting device of the system. The chamber was closed, and the irradiation time was set to about 126 s according to the dose rate to enable the total dose to reach 3 Gy. The irradiator was turned on for the irradiation. 100 mg/kg JAC4 was administered intragastrically daily. The body weight and tumor volume were measured daily and the modeling was terminated on day 13 post-dose.
After the modeling was finished, the tumor tissue was subjected to HE staining according to the following specific procedures: 3 mice were randomly selected to provide the tumor tissue for HE staining in each group, and 6 fields of view were randomly selected for inspection.

The subject of a further data set is BEAS-2B cells. Briefly: Plate colony formation, BEAS-2B (Example 22). The data set is classed as cell-based, human. As for the experimental part:
The cell proliferation capacity was determined by a plate colony formation experiment, with the following specific procedures.
1. SPCA-1 and BEAS-2B cells (or SPCA-1 and BEAS-2B cells transfected with JWA-knockdown plasmids) in the exponential growth phase were plated in 6-well plates at a specific amount. The number of plated cells is as follows
2. After the cells adhered to the container wall, the cells were treated (or not treated) with […] JAC4 and treated with X-ray of 0, 2, 4, or 6 Gy. The medium was replaced with a fresh medium containing JAC4 at the corresponding concentration once every 2 days (or the cells were treated with X-ray of 0, 2, 4, or 6 Gy after adhesion, and the medium was replaced with a fresh medium once every 2 days).
3. After the cells were cultured for 10-14 days, colonies were visually observed. The culture medium was discarded, and the cells were fixed with methanol for 10-20 min, stained with crystal violet for 10 min, slowly washed with flowing clear water thrice, photographed, and counted for colonies containing>50 cells.
4. The colony forming efficiency (CFE)=(number of colonies formed/number of seeded cells) 100% was calculated, and the cell survival fraction (SF)=(colony forming efficiency of treatment group/colony forming efficiency of 0 Gy group)×100% was calculated from the colony forming efficiency.

Take `c1ccc(CSc2nnc(C3COc4ccccc4O3)o2)nc1` (centres unmarked) [JAC4]: the “small intestine villus length” value in the data set with C57BL/6 male mice [1] (TBI 6 Gy, then JAC4 100 mg/kg oral once daily 7 days) was 263.11±37.99 μm; in the data set on C57BL/6 male mice [1] (non-radiation, JAC4 100 mg/kg oral 7 days), 306.71±24.22 μm. Further, the body weight curve entry in the data set on C57BL/6 male mice [2] was “consistently above that of the vehicle+radiation group”. Besides, the small intestine length with C57BL/6 male mice [3] (4 days after) amounted to 34.83±1.44 cm. In the data set on C57BL/6 male mice [3] (among the groups), the “length of the colon” value is on record as “no statistically significant differences”. Also, the tumor inhibition rate with SPCA-1 cells (100 mg/kg JAC4 + 3 Gy×5 X-ray combination therapy) was found to be 78.05%; in the data set with SPCA-1 cells (100 mg/kg JAC4 intragastric daily, monotherapy) it was 25.45%. For the same molecule, in the data set on SPCA-1 cells (100 mg/kg JAC4 monotherapy), the tumor volume entry is given as “significantly smaller than the control group”. In addition, the tumor-to-body weight ratio entry with SPCA-1 cells (JAC4 + X-ray combination vs X-ray monotherapy group) is “significantly reduced”. Besides, the “H&E staining of tumor tissues” value in the data set with SPCA-1 cells (JAC4 in combination with X-ray) is “promotes the necrosis of tumor tissues”. Besides, the death entry in the data set with SPCA-1 cells (all groups, JAC4 100 mg/kg with or without X-ray) was “no death occurred”. Further, in the data set with SPCA-1 cells (among all groups, JAC4 100 mg/kg with or without X-ray), the body weight entry is reported as “no significant changes”. The “cell survival (radiosensitization curve)” value in the data set with BEAS-2B cells (10 μM JAC4 + X-ray vs X-ray monotherapy) is recorded as “slightly increased”. The “number of colonies formed” value in the data set with BEAS-2B cells (JAC4 in combination with X-ray) is recorded as “increased”.
